The source made the active and inactive calls. For most assays here, no stated cut-off is given here; in the data, actives have a measured IC50 and inactives only a lower limit.
Legend:
[1] = target: T1, Sentrin-specific protease 8 (Homo sapiens, UniProt Q96LD8); test: SENP8 protease inhibitors, SAR follow-up, biochemical, luminescence (AID 504501); format: functional
T1 sequence (Q96LD8 whole entry): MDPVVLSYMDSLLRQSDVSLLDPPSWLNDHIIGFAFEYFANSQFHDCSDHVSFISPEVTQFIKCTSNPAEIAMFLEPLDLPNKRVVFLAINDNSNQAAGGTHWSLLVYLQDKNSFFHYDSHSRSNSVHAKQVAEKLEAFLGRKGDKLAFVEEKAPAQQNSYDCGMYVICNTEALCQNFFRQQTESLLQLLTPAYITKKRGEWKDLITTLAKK

[2] = target: T2, Oxysterols receptor LXR-beta (Homo sapiens, UniProt P55055); format: functional, cell-based;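 further: Cell-based luminescence dose-response assay of agonist activity at LXR, run as a confirmatory counterscreen to a daf-12 agonist screen; HEK293 cells with Gal4-LXR fusion and GAL4-driven luciferase reporter; agonist potency from rising luciferase signal of a Gal4-LXR reporter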
T2 sequence (P55055 whole entry): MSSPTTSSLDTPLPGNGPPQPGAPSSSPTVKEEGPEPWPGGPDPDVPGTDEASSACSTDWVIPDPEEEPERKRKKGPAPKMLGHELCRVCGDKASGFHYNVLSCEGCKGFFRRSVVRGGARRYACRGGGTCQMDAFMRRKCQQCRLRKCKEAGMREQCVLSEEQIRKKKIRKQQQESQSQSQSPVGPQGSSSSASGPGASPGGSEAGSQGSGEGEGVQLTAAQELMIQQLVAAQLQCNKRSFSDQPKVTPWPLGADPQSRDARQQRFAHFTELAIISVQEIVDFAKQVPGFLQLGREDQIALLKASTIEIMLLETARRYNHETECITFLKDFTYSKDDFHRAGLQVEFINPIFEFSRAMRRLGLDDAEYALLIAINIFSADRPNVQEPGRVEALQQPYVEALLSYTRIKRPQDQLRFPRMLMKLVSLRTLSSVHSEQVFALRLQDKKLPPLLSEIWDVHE

[3] = target: T3, Sentrin-specific protease 6 (Homo sapiens, UniProt Q9GZR1); test: SAR Analysis of small molecule inhibitors of Sentrin-specific protease 6 (SENP6) using a Luminescent assay. [Related pubchem assays (depositor defined):AID2582, AID2599]; format: functional
T3 sequence (Q9GZR1 whole entry): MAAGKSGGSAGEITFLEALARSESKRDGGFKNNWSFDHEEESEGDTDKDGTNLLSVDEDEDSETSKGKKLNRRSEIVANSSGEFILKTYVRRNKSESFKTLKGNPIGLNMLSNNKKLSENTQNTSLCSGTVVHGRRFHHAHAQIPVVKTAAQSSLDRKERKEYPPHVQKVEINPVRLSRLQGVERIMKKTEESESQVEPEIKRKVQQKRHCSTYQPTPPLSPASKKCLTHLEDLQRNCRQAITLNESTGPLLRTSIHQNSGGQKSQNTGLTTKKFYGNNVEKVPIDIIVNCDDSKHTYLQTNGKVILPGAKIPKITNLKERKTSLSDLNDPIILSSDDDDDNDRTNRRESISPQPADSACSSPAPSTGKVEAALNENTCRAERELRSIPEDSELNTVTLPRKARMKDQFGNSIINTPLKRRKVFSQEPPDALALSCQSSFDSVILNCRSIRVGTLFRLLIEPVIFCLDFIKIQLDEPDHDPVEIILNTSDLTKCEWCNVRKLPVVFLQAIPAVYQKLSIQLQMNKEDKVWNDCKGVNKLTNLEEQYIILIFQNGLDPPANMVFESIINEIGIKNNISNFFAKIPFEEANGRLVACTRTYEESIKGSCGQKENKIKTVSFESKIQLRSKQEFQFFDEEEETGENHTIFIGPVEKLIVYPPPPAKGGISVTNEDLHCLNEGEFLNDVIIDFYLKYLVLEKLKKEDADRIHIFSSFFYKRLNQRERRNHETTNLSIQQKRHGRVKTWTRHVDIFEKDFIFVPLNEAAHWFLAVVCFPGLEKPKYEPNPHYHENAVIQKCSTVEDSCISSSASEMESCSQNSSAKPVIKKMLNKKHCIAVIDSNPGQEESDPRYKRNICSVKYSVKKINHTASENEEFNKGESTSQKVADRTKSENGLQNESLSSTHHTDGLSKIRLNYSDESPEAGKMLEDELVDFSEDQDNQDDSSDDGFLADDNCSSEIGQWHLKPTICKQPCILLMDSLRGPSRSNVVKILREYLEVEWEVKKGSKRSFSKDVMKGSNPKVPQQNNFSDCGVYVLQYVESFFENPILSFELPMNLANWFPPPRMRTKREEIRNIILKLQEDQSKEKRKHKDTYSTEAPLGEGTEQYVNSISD

Caspase-3 = target: T4, Caspase-3 (Homo sapiens, UniProt P42574); test: caspase-3 inhibitors as off-family protease, SAR follow-up, selectivity assay for SENP protease inhibitor project, biochemical, luminescence, set 2 (AID 588599); format: functional
T4 sequence (P42574 whole entry): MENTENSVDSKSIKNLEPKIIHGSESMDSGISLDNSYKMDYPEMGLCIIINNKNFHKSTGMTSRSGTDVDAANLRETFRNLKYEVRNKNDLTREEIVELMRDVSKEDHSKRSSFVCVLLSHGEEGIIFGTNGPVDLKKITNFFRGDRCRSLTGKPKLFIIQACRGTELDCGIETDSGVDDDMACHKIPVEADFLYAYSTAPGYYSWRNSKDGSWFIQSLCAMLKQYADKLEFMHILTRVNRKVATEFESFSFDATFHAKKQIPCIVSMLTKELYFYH

[4] = target: T1, Sentrin-specific protease 8; format: functional

Compound	IC50 [1]	EC50 [2]	IC50 [3]	IC50 (Caspase-3)	IC50 [4]
Oc1ccccc1/C=C/c1noc(-c2ccccc2O)n1	> 99 µM (inactive)	> 67.6 µM (inactive)	> 99 µM (inactive)	> 99 µM (inactive)	–
COc1ccccc1N1C(=O)Cc2ccccc2C1=O	–	–	–	–	2.04 µM (active)

— ChEMBL document CHEMBL1201862, “PubChem BioAssay data set” (2004)
